Laboratory results reported in ChEMBL document CHEMBL5257032, “Therapeutic potential of coumarins as antiviral agents” (Eur J Med Chem, 2016).
≈ marks a conversion by molar mass, not a printed value.

Legend:
[1] = molecular target: T1, Human immunodeficiency virus type 1 protease (Human immunodeficiency virus 1, UniProt Q72874); assay: (§1) Inhibition of HIV-1 protease
[2] = test system: Human immunodeficiency virus 1; assay: Antiviral activity against HIV-1 infected in human Jurkat cells; format: functional, organism-based; settings: Human immunodeficiency virus 1, Jurkat
[3] = Cytotoxicity against African green monkey Vero cells; format: toxicity, cell-based; settings: chlorocebus sabaeus, read-out: CD50 (the source's name)
[4] = test system: Human alphaherpesvirus 1; assay: Antiviral activity against Herpes simplex virus 1; format: functional, organism-based
[5] = test system: Human alphaherpesvirus 1; assay: Antiviral activity against Herpes simplex virus 1 assessed as reduction in number of plaques at 0.12 mg/ml relative to control; format: functional; set-up: scale not given: the % may be the effect or the level left
[6] = test system: Human immunodeficiency virus; assay: Antiviral activity against HIV infected in human H9 cells; format: functional, organism-based; settings: Human immunodeficiency virus 1, H9; read-out: EC50
[7] = Inhibition of Hepatitis C virus NS5B polymerase; set-up: species or system Hepacivirus hominis
[8] = Binding affinity to HIV protease assessed as inhibition constant; set-up: species or system Human immunodeficiency virus
[9] = test system: H9; assay: Cytotoxicity against human H9 cells; format: functional, cell-based
[10] = Therapeutic index, ratio of IC50 for cytotoxicity against human H9 cells to EC50 for antiviral activity against HIV infected in H9 cells; format: toxicity, cell-based; settings: read-out: Ratio IC50/EC50
[11] = test system: Human immunodeficiency virus 1; assay: Antiviral activity against HIV-1; format: functional, organism-based
[12] = test system: Hepatitis C virus; assay: Antiviral activity against HCV subtype 1b in Huh-5-2 cells; format: functional, organism-based, Hepacivirus hominis
[13] = molecular target: Human immunodeficiency virus type 1 reverse transcriptase (Human immunodeficiency virus 1, UniProt Q72547); assay: Inhibition of HIV1 reverse transcriptase
[14] = molecular target: Human immunodeficiency virus type 1 protease (Human immunodeficiency virus 1) (UniProt Q72874); assay: Inhibition of HIV-1 protease relative to control; settings: concentration not given here
[15] = Antiviral activity against HIV-1 infected in human MT4 cells assessed as cell survival relative to control; format: functional, Human immunodeficiency virus 1
[16] = Half life in dog; format: ADME, Canis lupus familiaris; settings: in vivo
[17] = test system: Human immunodeficiency virus; assay: Antiviral activity against HIV; format: functional, organism-based; settings: Human immunodeficiency virus 1
[18] = molecular target: Human immunodeficiency virus type 1 protease (Human immunodeficiency virus 1) (UniProt Q72874); assay: as §1
[19] = molecular target: T1, Human immunodeficiency virus type 1 protease; assay: Binding affinity to HIV-1 protease assessed as inhibition constant
[20] = test system: Human immunodeficiency virus 1; assay: Antiviral activity against HIV-1 infected in CEM-SS cells; format: functional, organism-based; settings: Human immunodeficiency virus 1, CEM-SS
[21] = test system: Human immunodeficiency virus 1; assay: Antiviral activity against HIV-1 infected in human H9 cells; format: functional, organism-based; settings: Human immunodeficiency virus 1, H9; read-out: EC50
[22] = Inhibition of HIV protease; set-up: species or system Human immunodeficiency virus
[23] = test system: MT4; assay: Cytotoxicity against human MT4 cells by MTT assay; format: functional; settings: read-out: TD50 (the source's name)
[24] = test system: Human immunodeficiency virus 1; assay: Antiviral activity against HIV-1 IIIB infected in human MT4 cells; format: functional, organism-based; settings: Human immunodeficiency virus 1, IIIB

## O=c1oc(-c2ccccc2)cc(O)c1C(SC1CCCC1)C1CCCC1 (stereo unspecified)
[1]
  IC50: 225 nM

## CC(C)=CCc1c(O)c(C(=O)C(C)C)c(O)c2c(-c3ccccc3)cc(=O)oc12 [MESUOL]
[2]
  IC50: 2000 nM

## O=C(COc1cc(=O)oc2ccccc12)NN1C(=O)CSC1c1ccc(Cl)cc1 (stereo unspecified)
[3]
  CC50: 20 µg/mL (≈ 46.4 µM)
[4]
  MIC: 120 µg/mL (≈ 279 µM)
[5]
  Activity: 30%

## CC(C)(Cl)C(O)COc1c2occc2cc2ccc(=O)oc12 (stereo unspecified)
[6]
  EC50: 2.25 µg/mL (≈ 6.97 µM)

## COc1cc2c(cc1O)oc(=O)c1c3cc(O)c(O)cc3oc21
[7]
  IC50: 18500 nM

## CCC(c1cccc(NC(=O)CNC(=O)OC(C)(C)C)c1)c1c(O)c2ccccc2oc1=O (stereo unspecified)
[8]
  Ki: 160 nM

## CC(C)=CCOc1c2occc2cc2ccc(=O)oc12 [PENTOSALEN]
[6]
  EC50: < 0.1 µg/mL
[9]
  IC50: > 100 µg/mL
[10]
  selectivity ratio: > 1000

## CCC(Cc1ccccc1)c1cc(O)c(C(CC)c2ccccc2)c(=O)o1 (stereo unspecified)
[11]
  IC50: 3000 nM

## COC(C)(C)C(O)COc1c2ccoc2cc2oc(=O)ccc12 (stereo unspecified)
[6]
  EC50: 33 µg/mL (≈ 104 µM)

## O=c1oc2ccc(Br)cc2cc1CSc1ncc[nH]1
[12]
  EC50: 5100 nM

## Cc1cc(=O)oc2c3c(c4c(c12)OC(C)(C)C=C4)O[C@H](C)[C@@H](C)[C@@H]3O [(+)-CORDATOLIDE A]
[13]
  IC50: 12300 nM

## O=c1ccc2cc3ccoc3cc2o1 [PSORALEN]
[6]
  EC50: 0.1 µg/mL (≈ 0.537 µM)

## O=c1oc2cc(O)ccc2c(O)c1-c1ccc(O)cc1
[1]
  IC50: 2000 nM

## Cc1cc(=O)oc2c1ccc1oc(C(=O)c3ccccc3)c(-c3ccccc3)c12
[11]
  EC50: 1.3 nM

## CCC(c1cccc(NC(=O)CCNC(=O)OC(C)(C)C)c1)c1c(O)c2ccccc2oc1=O (stereo unspecified)
[8]
  Ki: 280 nM

## CCOC(=O)C(C(C)=O)C(c1cccc([N+](=O)[O-])c1)c1c(O)c2ccccc2oc1=O (stereo unspecified)
[14]
  inhibition: 25%
[1]
  IC50: 0.01 nM
[15]
  Survival: 78%

## N#Cc1ccc(S(=O)(=O)Nc2cccc(C(c3c(O)c4c(oc3=O)CCCCCC4)C3CC3)c2)cc1 (stereo unspecified)
[16]
  half-life: 6 h
[17]
  IC50: 1500 nM
[8]
  Ki: 0.8 nM

## O=c1oc2ccccc2c(O)c1C(c1ccc(C(c2c(O)c3ccccc3oc2=O)c2c(O)c3ccccc3oc2=O)cc1)c1c(O)c2ccccc2oc1=O
[18]
  ID50: 1700 nM
[1]
  IC50: 11500 nM

## CC(=O)CC(c1ccccc1)c1c(O)c2ccc(C)c(C)c2oc1=O (stereo unspecified)
[1]
  IC50: 1900 nM

## CCC(c1cccc(NC(=O)[C@@H]2CCCN2C(=O)OC(C)(C)C)c1)c1c(O)c2ccccc2oc1=O (stereo partly specified)
[8]
  Ki: 3600 nM

## CCNC(=O)Nc1cccc(C(c2c(O)c3c(oc2=O)CCCCCC3)C2CC2)c1 (stereo unspecified)
[8]
  Ki: 72 nM

## CCC(c1cccc(NC(=O)CCn2ccc3ccccc32)c1)c1c(O)c2ccccc2oc1=O (stereo unspecified)
[8]
  Ki: 110 nM

## CCCCCCc1cc2c(O)c(C(c3ccccc3)c3c(O)c4cc(CCCCCC)c(O)cc4oc3=O)c(=O)oc2cc1O
[18]
  ID50: 320 nM

## CCC(Cc1ccccc1)c1cc(O)c(C(c2cccc(N[C@@H](C)C(=O)OC(C)(C)C)c2)C2CC2)c(=O)o1 (stereo partly specified)
[19]
  Ki: 15 nM

## CCC(c1ccccc1)c1c(O)c2ccccc2oc1=O (stereo unspecified) [PHENPROCOUMON]
[17]; read-out: ED50 (the source's name)
  EC50: 100000 nM
[8]
  Ki: 1000 nM

## COc1cc2c(cc1O)oc1c3ccc(O)cc3oc(=O)c21
[7]
  IC50: 174000 nM

## CCCc1cc(=O)oc2c3c(c4c(c12)OC(C)(C)C=C4)O[C@H](C)[C@@H](C)C3=O
[13]
  IC50: 19000 nM
[20]
  EC50: 1200 nM

## CCCC1(CCC)CC(O)=C(C(c2ccccc2)C2CC2)C(=O)O1 (stereo unspecified)
[1]
  IC50: 5000 nM

## CC1(C)OC1COc1c2ccoc2cc2oc(=O)ccc12 (stereo unspecified)
[6]
  EC50: 1 µg/mL (≈ 3.49 µM)

## Cc1cc(=O)oc2c3c(c4c(c12)OC(C)(C)C=C4)O[C@H](C)[C@@H](C)[C@H]3O
[13]
  IC50: 19000 nM

## CC1(C)C=Cc2c(ccc3ccc(=O)oc23)O1 [SESALIN]
[21]
  EC50: 3500 nM

## O=c1oc2c(c(O)c1C(c1ccccc1)C1CC1)CCCCCC2 (stereo unspecified)
[22]
  IC50: 57000 nM
[8]
  Ki: 15 nM

## CCC(Cc1ccccc1)c1cc(O)c(C(c2cccc(NC(=O)[C@H](Cc3c[nH]cn3)NC(=O)OC(C)(C)C)c2)C2CC2)c(=O)o1 (stereo partly specified)
[23]
  CC50: ≥ 30000 nM
[24]
  IC50: 3000 nM

## Cc1c(CO)c(=O)oc2c3c(ccc12)OC(C)(C)[C@H](OC(=O)C12CCC(C)(C(=O)O1)C2(C)C)[C@@H]3OC(=O)[C@@]12CC[C@](C)(C(=O)O1)C2(C)C
[21]
  EC50: 4 nM

## O=c1oc2ccccc2c(O)c1C(c1ccc2c(c1)OCO2)c1c(O)c2ccccc2oc1=O
[18]
  ID50: 30000 nM

## Cc1cc(SC2=C(O)C[C@@](CCc3ccc(N)cc3)(C(C)C)OC2=O)c(C(C)(C)C)cc1CO
[1]
  EC50: 200 nM

## CC(C)=CCc1c(O)c(C(=O)C(C)C)c2oc(=O)cc(-c3ccccc3)c2c1O [ISOMESUOL]
[2]
  IC50: 2000 nM

## CCC(c1cccc(NC(=O)CCCNC(=O)OC(C)(C)C)c1)c1c(O)c2ccccc2oc1=O (stereo unspecified)
[8]
  Ki: 1600 nM
